Data: patent US20230074252A1, “DOSAGES AND METHODS FOR TREATING PULMONARY ARTERIAL HYPERTENSION WITH RODATRISTAT” (Altavant Sciences GmbH, priority 2020, published 2023)

Assays:
Type in all cases: in vitro ADME
CYP2C9 = CYP2C9 (Homo sapiens, UniProt P11712); assay: Direct and time-dependent CYP inhibition, pooled human liver microsomes; design: from tissue; host or cells: pooled human liver microsomes (n=200 donors); conditions: for IC50: human liver microsomes, read-out: In vitro IC50, direct inhibition, CYP2C9
Protocol: (§1) “mM^”=millimolar. CYP induction was evaluated using cultured human hepatocytes (from 3 donors) treated once daily for 3 days with RE/R concentrations to […].
(§2) The competitive inhibition of specific CYP isoforms was investigated for RVT-1201 and KAR5417 in human liver microsomes (HLM) (XT155056). Of the […] evaluated in vitro (CYP1A2, CYP2B6, CYP2C8, CYP2C9, CYP2D6, CYP3A4, CYP3A5), RVT-1201 IC50 estimates were determined for CYP2B6, CYP2C8 and CYP3A4 only. […] For each IC50 estimate, substrate concentration and Km were used to estimate RVT-1201 and KAR5417 Ki.

CYP2D6 = CYP2D6 (Homo sapiens, UniProt P10635); assay: as above; design: from tissue; host or cells: pooled human liver microsomes (n=200 donors)
Protocol: as §1, §2

CYP1A2 [1] = molecular target: T1, CYP1A2 (Homo sapiens, UniProt P05177); assay: as above; design: from tissue; host or cells: pooled human liver microsomes (n=200 donors)
T1 sequence (P05177 1-516): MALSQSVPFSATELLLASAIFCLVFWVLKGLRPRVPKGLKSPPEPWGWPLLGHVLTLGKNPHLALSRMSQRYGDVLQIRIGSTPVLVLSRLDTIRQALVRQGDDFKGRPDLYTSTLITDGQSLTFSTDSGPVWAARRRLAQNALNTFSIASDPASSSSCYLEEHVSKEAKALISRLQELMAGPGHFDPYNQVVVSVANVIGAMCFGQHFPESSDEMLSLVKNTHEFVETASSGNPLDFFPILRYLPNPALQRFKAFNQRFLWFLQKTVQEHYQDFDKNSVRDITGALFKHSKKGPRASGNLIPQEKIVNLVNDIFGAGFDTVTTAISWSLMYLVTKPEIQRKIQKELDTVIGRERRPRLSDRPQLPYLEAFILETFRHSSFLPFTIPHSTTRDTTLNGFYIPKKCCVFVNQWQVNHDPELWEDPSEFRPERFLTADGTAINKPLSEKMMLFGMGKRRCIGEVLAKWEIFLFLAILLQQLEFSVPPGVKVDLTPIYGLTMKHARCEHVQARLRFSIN
Protocol: as §1, §2

CYP2B6 = molecular target: T2, CYP2B6 (Homo sapiens, UniProt P20813); assay: as above; design: from tissue; host or cells: pooled human liver microsomes (n=200 donors); conditions: for IC50: human liver microsomes, read-out: In vitro IC50, direct inhibition, CYP2B6
T2 sequence (P20813 1-491): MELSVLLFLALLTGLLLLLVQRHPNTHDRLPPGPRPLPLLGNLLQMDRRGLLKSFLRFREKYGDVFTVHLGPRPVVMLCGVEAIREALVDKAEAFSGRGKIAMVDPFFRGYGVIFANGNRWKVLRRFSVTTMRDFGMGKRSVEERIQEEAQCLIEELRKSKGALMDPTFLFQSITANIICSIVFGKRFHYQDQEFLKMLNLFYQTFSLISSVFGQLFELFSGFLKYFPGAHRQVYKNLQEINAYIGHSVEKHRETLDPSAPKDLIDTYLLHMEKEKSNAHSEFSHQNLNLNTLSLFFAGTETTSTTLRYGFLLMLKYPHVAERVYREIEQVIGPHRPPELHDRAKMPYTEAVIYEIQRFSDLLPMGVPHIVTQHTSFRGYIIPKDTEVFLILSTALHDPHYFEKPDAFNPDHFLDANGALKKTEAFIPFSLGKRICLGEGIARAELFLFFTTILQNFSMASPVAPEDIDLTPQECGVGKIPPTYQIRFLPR
Protocol: as §1, §2

CYP2C8 [2] = molecular target: T3, CYP2C8 (Homo sapiens, UniProt P10632); assay: as above; design: from tissue; host or cells: pooled human liver microsomes (n=200 donors); conditions: for IC50: human liver microsomes, read-out: In vitro IC50, direct inhibition, CYP2C8; for Calculated R1 Value, CYP2C8: predicted @ 600 mg BID, R1=1+(Imax,unbound/Ki)
T3 sequence (P10632 1-490): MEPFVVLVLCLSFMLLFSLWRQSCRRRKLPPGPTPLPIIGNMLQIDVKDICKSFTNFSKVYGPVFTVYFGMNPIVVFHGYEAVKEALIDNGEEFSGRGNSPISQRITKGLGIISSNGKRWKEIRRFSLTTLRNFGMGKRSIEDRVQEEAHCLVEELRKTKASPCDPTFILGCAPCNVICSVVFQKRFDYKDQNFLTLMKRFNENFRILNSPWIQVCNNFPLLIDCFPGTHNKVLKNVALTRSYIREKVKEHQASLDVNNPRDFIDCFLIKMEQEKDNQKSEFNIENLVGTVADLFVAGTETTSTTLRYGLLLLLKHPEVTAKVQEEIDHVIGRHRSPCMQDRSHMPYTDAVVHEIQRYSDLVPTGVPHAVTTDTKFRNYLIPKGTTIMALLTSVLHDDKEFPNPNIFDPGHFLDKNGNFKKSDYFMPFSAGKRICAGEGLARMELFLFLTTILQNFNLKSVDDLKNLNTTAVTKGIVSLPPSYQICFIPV
Protocol: as §1, §2

CYP2C8 [3] = molecular target: T3, CYP2C8; assay: In vitro CYP substrate assessment (victim potential)
CYP1A2 [4] = molecular target: T1, CYP1A2; assay: as above
CYP3A4 = CYP3A4 (Homo sapiens, UniProt P08684); assay: as above
[5] = human, pooled human liver microsomes, 30 μM, range given across CYPs 2B6, 2C9 and 3A4/5

Sequence of CYP2C9 (P11712 whole entry): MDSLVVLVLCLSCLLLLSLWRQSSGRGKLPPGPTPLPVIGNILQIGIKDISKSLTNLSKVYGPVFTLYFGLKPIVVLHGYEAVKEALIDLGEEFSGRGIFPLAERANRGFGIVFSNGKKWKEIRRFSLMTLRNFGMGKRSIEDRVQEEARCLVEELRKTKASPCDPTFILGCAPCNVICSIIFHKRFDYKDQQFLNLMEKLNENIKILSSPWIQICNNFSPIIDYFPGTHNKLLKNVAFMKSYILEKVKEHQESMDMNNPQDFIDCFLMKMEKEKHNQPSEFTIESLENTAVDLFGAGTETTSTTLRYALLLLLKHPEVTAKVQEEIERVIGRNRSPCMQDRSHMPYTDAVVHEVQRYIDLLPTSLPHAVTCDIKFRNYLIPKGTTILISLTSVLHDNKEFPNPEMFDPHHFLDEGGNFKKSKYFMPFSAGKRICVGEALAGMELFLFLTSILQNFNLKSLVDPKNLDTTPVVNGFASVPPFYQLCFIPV
Sequence of CYP3A4 (P08684 whole entry): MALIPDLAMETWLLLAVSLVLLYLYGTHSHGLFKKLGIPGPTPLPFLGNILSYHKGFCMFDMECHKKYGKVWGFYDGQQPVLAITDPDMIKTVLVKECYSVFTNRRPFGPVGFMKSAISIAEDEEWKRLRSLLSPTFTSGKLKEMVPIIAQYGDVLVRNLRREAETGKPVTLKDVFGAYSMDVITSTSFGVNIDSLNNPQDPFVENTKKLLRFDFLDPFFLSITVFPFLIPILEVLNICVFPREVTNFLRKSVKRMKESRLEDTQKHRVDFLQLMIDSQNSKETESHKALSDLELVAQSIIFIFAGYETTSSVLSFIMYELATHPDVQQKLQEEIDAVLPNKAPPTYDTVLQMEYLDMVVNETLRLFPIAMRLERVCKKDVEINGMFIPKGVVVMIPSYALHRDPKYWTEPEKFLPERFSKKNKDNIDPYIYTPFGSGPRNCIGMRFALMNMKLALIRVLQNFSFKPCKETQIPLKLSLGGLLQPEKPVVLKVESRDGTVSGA
Sequence of CYP2D6 (P10635 whole entry): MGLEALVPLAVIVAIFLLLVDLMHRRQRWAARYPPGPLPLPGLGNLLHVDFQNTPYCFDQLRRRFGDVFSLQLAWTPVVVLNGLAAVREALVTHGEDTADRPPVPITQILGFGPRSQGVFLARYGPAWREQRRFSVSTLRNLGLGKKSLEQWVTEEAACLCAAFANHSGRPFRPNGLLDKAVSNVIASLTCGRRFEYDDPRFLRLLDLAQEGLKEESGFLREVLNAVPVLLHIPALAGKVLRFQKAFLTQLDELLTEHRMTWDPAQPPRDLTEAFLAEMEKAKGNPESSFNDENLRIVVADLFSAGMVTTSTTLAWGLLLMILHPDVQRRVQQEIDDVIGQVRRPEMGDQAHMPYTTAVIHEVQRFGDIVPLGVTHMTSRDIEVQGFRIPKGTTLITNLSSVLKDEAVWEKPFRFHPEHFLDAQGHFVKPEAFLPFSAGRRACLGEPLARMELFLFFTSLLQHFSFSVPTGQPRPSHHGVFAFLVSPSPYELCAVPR

SMILES	Direct inhibition of CYP2C9 (in words) (CYP2C9)	IC50 (CYP2C9) [µM]	IC50 (CYP2D6; human liver microsomes, read-out: In vitro IC50, direct inhibition, CYP2D6) [µM]	IC50 (CYP1A2 [1]; human liver microsomes, read-out: In vitro IC50, direct inhibition, CYP1A2) [µM]	IC50 (CYP2B6) [µM]	Calculated R1 Value, CYP2B6 (CYP2B6; predicted @ 600 mg BID, R1=1+(Imax,unbound/Ki))	IC50 (CYP2C8 [2]) [nM]	Calculated R1 Value, CYP2C8 (CYP2C8 [2])	In vitro substrate? CYP2C8 (CYP2C8 [3])	In vitro substrate? CYP1A2 (CYP1A2 [4])	In vitro substrate? CYP3A4 (CYP3A4)	inhibition at 30 µM (CYP2C9; [5]) [%]	Direct inhibition of CYP2D6 (in words) (CYP2D6)	Direct inhibition of CYP1A2 (in words) (CYP1A2 [1])	inhibition at 30 µM (CYP2B6; [5]) [%]	Ki (CYP2C8 [2]; equivalent to IC50/2) [nM]	Calculated R1 Value, CYP2C8 (CYP2C8 [2]; listed as rodatristat)
CCOC(=O)[C@@H]1CC2(CCN(c3cc(O[C@H](c4ccc(Cl)cc4-c4ccccc4)C(F)(F)F)nc(N)n3)CC2)CN1 [Rodatristat ethyl, (S)-ethyl 8-(2-amino-6-((R)-1-(5-chloro-[1,1′-biphenyl]-2-yl)-2,2,2-trifluoroethoxy)pyrimidin-4-yl)-2,8-diazaspiro[4.5]decane-3-carboxylate]	Neither rodatristat ethyl nor rodatristat inhibit	> 30	> 30	> 30	13	<1.02	2800	<1.02	No	No	No						
Nc1nc(O[C@H](c2ccc(Cl)cc2-c2ccccc2)C(F)(F)F)cc(N2CCC3(CC2)CN[C@H](C(=O)O)C3)n1 [Rodatristat, (S)-8-(2-amino-6-((R)-1-(5-chloro-[1,1′-biphenyl]-2-yl)-2,2,2-trifluoroeth-oxy)pyrimidin-4-yl)-2,8-diazaspiro[4.5]decane-3-carboxylic acid]	Neither rodatristat ethyl nor rodatristat inhibit	> 30			> 30		2800	<1.02	No	No	No	27 to 45	did not inhibit	did not inhibit	27 to 45	1400	<1.02
